What was measured:
[1] = biological target: TSPO (Homo sapiens, UniProt P30536); details: compared with earlier tracer [11C]PK11195, background art; cited from earlier work
[2] = In vitro stability in human serum; format: in vitro ADME; details: human serum mixed with 1% ethanol/water, 37° C., for up to 120 minutes
Experimental: In an experiment on the in vitro stability of the fluorine-18-labeled PET radiotracer ([^18F]BS224) for targeting translocator protein overexpression, 0.4 mL of human serum was mixed with 0.4 mL of 1% ethanol/water containing the fluorine-18-labeled radiotracer ([^18F]BS224), and then the solution was incubated at 37° C. for 0, 10, 30, 60 and 120 minutes and then analyzed by thin film chromatography.

[3] = Measurement of lipophilicity (n-octanol / sodium phosphate buffer partition); format: physicochemical; details: n-octanol / sodium phosphate buffer 0.15 M, pH 7.4; measured five times; read-out: lipophilicity (ratio of counts per minute from n-octanol versus sodium phosphate buffer) (converted)
Experimental: For the measurement of lipophilicity, [^18F]BS224 dispersed in 5% ethanol/saline was added to and mixed with n-octanol (5 mL) and sodium phosphate buffer (0.15 M, pH 7.4, 5.0 mL), and then lipophilicity was measured five times. Samples of each phase were counted for radioactivity, and the lipophilicity was expressed as the ratio of the counts per minute from n-octanol versus that of the sodium phosphate buffer. The lipophilicity of [^18F]BS224 was 2.78±0.4.

Sequence of TSPO (P30536 whole entry): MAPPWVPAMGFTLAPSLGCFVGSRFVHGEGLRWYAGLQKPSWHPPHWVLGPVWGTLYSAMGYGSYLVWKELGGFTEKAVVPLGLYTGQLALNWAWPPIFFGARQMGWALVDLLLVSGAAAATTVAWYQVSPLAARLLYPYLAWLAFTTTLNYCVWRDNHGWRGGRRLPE

COc1ccc(OC)c(CN(C(C)=O)c2cc(F)ccc2Oc2ccccc2)c1 [[^11C]DAA1106]
higher uptake [1]: 4 fold

CCCN(CCC)C(=O)Cc1c(-c2ccc([18F])cc2)nc2c(Cl)cc(Cl)cn12 [[^18F]BS224, 2-(6,8-dichloro-2-(4-[^18F]fluorophenyl)imidazo[1,2-a]pyridin-3-yl)-N, N-dipropylacetamide]
stability of radiotracer in human serum (thin film chromatography) [2]: at least 98.7%
logD [3]: 0.444

Source: patent US12491271B2, “Positron emission tomography radiotracer for diseases associated with translocator protein overexpression, translocator protein-targeting ligand for fluorescence imaging-guided surgery and photodynamic therapy, and production methods therefor” (Seoul National University R&DB Foundation, priority 2018, dated 2025)
